# Experimental data: patent US12139474B2, “LPA receptor antagonists and uses thereof” (Gilead Sciences, Inc., priority 2020, dated 2024)
# Molecular target: T1, human LPAR1 (Homo sapiens, UniProt Q92633)
# T1 construct: host or cells: CHO-K1
# Experiment: LPAR1 intracellular calcium mobilization assay (antagonist mode)
# Type: cell-based
# Conditions: CHO-K1 EDG2 cells expressing human LPAR1; 60 min pre-incubation with compound, then LPA 18:2 at EC80 (100 nM); FLIPR calcium signal
# Experimental: In vitro LPAR1 activity was measured in an intracellular calcium mobilization assay.
# CHO-K1 EDG2 cells (DiscoverX cat #93-0644C2) expressing human LPAR1 (NM_001401.3) were seeded in a total volume of 25 μL of Dulbecco's Modification of Eagle's Medium (DMEM) with 10% Fetal Bovine Serum, 1× PenStrepGlutamine, 300 ug/ml Hygromycin, and 800 ug/ml G418 into 384-well tissue culture plate (Grenier #781091) at 15,000 cells/well and incubated at 37° C. overnight. Prior to testing, 25 μL Calcium Loading Dye Component A (FLIPR Calcium 6 Assay Kit Molecular Device #R8190) and 2.5 mM Probenecid (Invitrogen #P36400, prepared fresh) in Hank's Balanced Salt Solution (Corning #21-023-CV), 20 mM HEPES (Corning #25-060-CI), 0.1% Bovine Serum Albumin (Sigma-Aldrich #A7906-500G) was add to the cells for 60 minutes at 37° C.
# Agonist dose curves of LPA 18:2 (Avanti Polar Lipids cat #857138, 0.5 nM to 10 μM) were recorded to determine the LPA 18:2 EC80 for subsequent antagonist assays. For agonist dose curves, cells were removed from the incubator 2 hours after dye loading and transferred to the FLIPR Tetra instrument (Molecular Devices, San Jose, CA). Calcium mobilization was monitored for 5 min and 10 μL 6× LPA in HBSS/20 mM Hepes/0.1% bovine serum albumin (BSA) was added to the cells 5 seconds into the assay.
# To determine the LPAR1 antagonist activity of test compounds, cells were pre-incubated with test compound at a dose range of 0.5 nM to 10 μM, followed by LPA at EC80 concentration (100 nM). After dye loading, cells were removed from the incubator and 0.3 μL of 200× antagonist was added. Cells were incubated for 60 minutes at 37° C. Antagonist activity was measured on a FLIPR Tetra. Calcium mobilization was monitored for 3.5 minutes and 10 μL 6× EC80 LPA in HBSS, 20 mM HEPES, and 0.1% BSA was added to the cells 5 seconds into the assay. Signal amplitude (Maximum minus minimum) values were plotted against log10 of antagonist concentration using Dose Response Tool (Gilead Sciences Inc.) to determine EC50.
# To assess the antagonistic potential of exemplified compounds EC50 values were determined for Compounds 1 to 32 in the LPAR1 calcium mobilization assay. The compound numbers correspond to the compound numbers in Examples 1 to 33.
# T1 sequence (Q92633 whole entry): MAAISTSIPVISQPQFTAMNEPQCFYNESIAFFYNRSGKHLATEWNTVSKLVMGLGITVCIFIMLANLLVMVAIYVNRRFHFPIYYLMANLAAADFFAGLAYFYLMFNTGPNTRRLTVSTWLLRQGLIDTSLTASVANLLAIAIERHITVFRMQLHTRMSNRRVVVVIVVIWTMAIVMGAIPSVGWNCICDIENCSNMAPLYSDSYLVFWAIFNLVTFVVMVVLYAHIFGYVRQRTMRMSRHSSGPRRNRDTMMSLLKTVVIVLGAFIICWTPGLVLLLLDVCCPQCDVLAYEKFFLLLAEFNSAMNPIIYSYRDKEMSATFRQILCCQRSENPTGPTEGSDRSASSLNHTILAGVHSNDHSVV
row,EC50,SMILES
1,4160 nM,"C[C@@H](OC(=O)Nc1c(-c2ccc3c(c2)CC(=O)N3)nnn1C)c1ccccc1Cl [Compound 14, (R)-1-(2-chlorophenyl)ethyl(1-methyl-4-(2-oxoindolin-5-yl)-1H-1,2,3-triazol-5-yl)carbamate]"
2,85 nM,"C[C@@H](OC(=O)Nc1c(-c2ccc3c(n2)OCC(=O)N3)nnn1C)c1cc(F)cnc1Cl [Compound 1, (R)-1-(2-chloro-5-fluoropyridin-3-yl)ethyl (1-methyl-4-(2-oxo-2,3-dihydro-1H-pyrido[2,3-b][1,4]oxazin-6-yl)-1H-1,2,3-triazol-5-yl)carbamate]"
3,115 nM,"C[C@@H](OC(=O)Nc1c(-c2cc3c(cc2F)NC(=O)CC3)nnn1C)c1cccnc1Cl [Compound 6, [(1R)-1-(2-chloro-3-pyridyl)ethyl] N-[5-(7-fluoro-2-oxo-3,4-dihydro-1H-quinolin-6-yl)-3-methyl-triazol-4-yl]carbamate]"
4,525 nM,"C[C@@H](OC(=O)Nc1c(-c2ccc3c(c2)COC(=O)N3)nnn1C)c1cccnc1Cl [Compound 16, (R)-1-(2-chloropyridin-3-yl)ethyl (1-methyl-4-(2-oxo-1,4-dihydro-2H-benzo[d][1,3]-oxazin-6-yl)-1H-1,2,3-triazol-5-yl)-carbamate]"
5,4610 nM,"C[C@@H](OC(=O)Nc1c(-c2ccc3c(c2)C(C)(C)OC(=O)N3)nnn1C)c1cccnc1F [Compound 9, (R)-1-(2-fluoropyridin-3-yl)ethyl (4-(4,4-dimethyl-2-oxo-1,4-dihydro-2H-benzo[d][1,3]oxazin-6-yl)-1-methyl-1H-1,2,3-triazol-5-yl)carbamate]"
